Measured values: ChEMBL document CHEMBL1201862, “PubChem BioAssay data set” (2004)
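Five compound concentrations were applied to cells in 96-well plates for 48 hours; endpoints were derived by simple linear interpolation of the resulting dose-response curve. GI50 is the concentration that inhibits growth by half.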 The source made the active and inactive calls. Cut-off read from the data, not from the text of the source: active = GI50 up to about 1.1 µM and inactive = higher.

Assays:
Assay in all cases: NCI-60 cell line screen, 48 h
A498 = test system: A498
BT-549 = test system: BT-549
DU-145 = test system: DU-145
HCC 2998 = test system: HCC 2998
Hs-578T = test system: Hs-578T
M14 = test system: M14
MCF7 = test system: MCF7
MDA-MB-435 = test system: MDA-MB-435
MDA-N = test system: MDA-N
MOLT-4 = test system: MOLT-4
NCI-H226 = test system: NCI-H226
NCI/ADR-RES = test system: NCI/ADR-RES
PC-3 = test system: PC-3
SK-MEL-28 = test system: SK-MEL-28
SN12C = test system: SN12C
SNB-19 = test system: SNB-19
T47D = test system: T47D
HOP-92 = test system: HOP-92

Row | Compound | GI50 (A498) | GI50 (BT-549) | GI50 (DU-145) | GI50 (HCC 2998) | GI50 (Hs-578T) | GI50 (M14) | GI50 (MCF7) | GI50 (MDA-MB-435) | GI50 (MDA-N) | GI50 (MOLT-4) | GI50 (NCI-H226) | GI50 (NCI/ADR-RES) | GI50 (PC-3) | GI50 (SK-MEL-28) | GI50 (SN12C) | GI50 (SNB-19) | GI50 (T47D) | GI50 (HOP-92)
1 | O=C1c2sc(-c3ccc(F)cc3)cc2-n2cccc21 | 23.3 µM (inactive) | 34 µM (inactive) | 24.6 µM (inactive) | 29.2 µM (inactive) | 19.7 µM (inactive) | 38.1 µM (inactive) | 24.5 µM (inactive) | 31.4 µM (inactive) | 25.8 µM (inactive) | 21.4 µM (inactive) | 24.4 µM (inactive) | 31.2 µM (inactive) | 37.2 µM (inactive) | 69.8 µM (inactive) | 19.4 µM (inactive) | 16.7 µM (inactive) | 12.8 µM (inactive) | 
2 | CC(C)(C)c1ccc(-n2c3nc(=O)n(-c4ccccc4CO)c(=O)c-3cc3ccccc32)cc1 | > 100 µM (inactive) | 38.4 µM (inactive) | 42.4 µM (inactive) | 38 µM (inactive) | 64.3 µM (inactive) | 42.8 µM (inactive) | 65.6 µM (inactive) | 36.1 µM (inactive) | 22.2 µM (inactive) | 16.1 µM (inactive) | 28 µM (inactive) | 50 µM (inactive) | 39.7 µM (inactive) | 38.7 µM (inactive) | 57.7 µM (inactive) | 74.8 µM (inactive) | 50 µM (inactive) | 36.8 µM (inactive)
3 | O=C1/C(=C/c2cccs2)N=C(c2ccccc2)N1C1Nc2cc3c(cc2S1)NC(N1C(=O)/C(=C/c2cccs2)N=C1c1ccccc1)S3 (configuration not stated) | 69.5 µM (inactive) | 18.1 µM (inactive) | 24.7 µM (inactive) | 19.3 µM (inactive) | 24.2 µM (inactive) | 18.2 µM (inactive) | 23 µM (inactive) | 17.7 µM (inactive) | 18.6 µM (inactive) | 12.6 µM (inactive) | 20.3 µM (inactive) | 13.9 µM (inactive) | 38.7 µM (inactive) | 32.3 µM (inactive) |  |  | 51.8 µM (inactive) | > 100 µM (inactive)
4 | CC1=C2c3c(C)ccc4ccc(C)c(c34)C2(O)C(C)C1=O (configuration not stated) | > 100 µM (inactive) | 21 µM (inactive) | > 100 µM (inactive) | > 100 µM (inactive) | 35.1 µM (inactive) | 62.2 µM (inactive) | 68.5 µM (inactive) | 52.1 µM (inactive) | 54.1 µM (inactive) | 25 µM (inactive) | > 100 µM (inactive) | 15.2 µM (inactive) | 32.7 µM (inactive) | 84.3 µM (inactive) | > 100 µM (inactive) | 44.3 µM (inactive) | 29.3 µM (inactive) | 44.5 µM (inactive)
5 | COc1cc2c(cc1O)CC[C@@H]1C2CC[C@@]2(C)C1CC[C@@H]2O (some centres not stated) | 16.7 µM (inactive) | 0.472 µM (active) | 2.46 µM (inactive) | 9.62 µM (inactive) | 1.14 µM (inactive) | 0.91 µM (active) | 1.6 µM (inactive) | 0.105 µM (active) | 0.103 µM (active) | 0.532 µM (active) | 48.5 µM (inactive) | 0.458 µM (active) | 6.24 µM (inactive) | 3.7 µM (inactive) | 6.85 µM (inactive) | 16.3 µM (inactive) | 4.66 µM (inactive) | 10.7 µM (inactive)
6 | CC(C)(/N=N/C(C)(C)C(=O)NCCO)C(=O)NCCO | > 100 µM (inactive) | > 100 µM (inactive) | > 100 µM (inactive) | > 100 µM (inactive) | > 100 µM (inactive) | > 100 µM (inactive) | > 100 µM (inactive) | > 100 µM (inactive) | > 100 µM (inactive) | > 100 µM (inactive) | > 100 µM (inactive) | > 100 µM (inactive) | > 100 µM (inactive) | > 100 µM (inactive) | > 100 µM (inactive) | > 100 µM (inactive) | > 100 µM (inactive) | > 100 µM (inactive)
7 | COC1CC(=O)C2C(=O)N(c3ccccc3)C(=O)C23C(C(=O)c2ccccc2)=C(C)NC13O (configuration not stated) | 17.2 µM (inactive) | 23.3 µM (inactive) | 13.5 µM (inactive) |  | 22.2 µM (inactive) | 15.5 µM (inactive) | 4.06 µM (inactive) | 14.5 µM (inactive) | 18.7 µM (inactive) |  |  | 20.9 µM (inactive) | 10.4 µM (inactive) | 11 µM (inactive) | 16.6 µM (inactive) | 21.4 µM (inactive) | 2.92 µM (inactive) | < 0.01 µM (active)
8 | Cc1ccc2c(O)cc(-c3ccccc3)nc2n1 |  | 0.122 µM (active) | 0.274 µM (active) | 0.157 µM (active) | 0.091 µM (active) | 0.0643 µM (active) | 0.0509 µM (active) | < 0.01 µM (active) | 0.0106 µM (active) | 0.116 µM (active) | 0.472 µM (active) | 0.0367 µM (active) | 0.0519 µM (active) | 0.181 µM (active) | 0.416 µM (active) | 0.309 µM (active) | > 100 µM (inactive) | 1.44 µM (inactive)
